The source of these data is patent US20260240810A1, “COMPOSITIONS AND METHODS FOR REDUCING ADVERSE SIDE EFFECTS IN CANCER TREATMENT” (priority 2022, published 2026).

This series can be described thus: Pharmacokinetics, RRx-001-GSH in plasma as surrogate for drug exposure. The format is in vivo. The procedure:
RRx-001 reacted nonenzymatically and covalently with reduced glutathione (GSH), and with the β93Cys residue of hemoglobin, forming RRx-001-GSH and RRx-001-hemoglobin metabolites, respectively. Given the rapid conversion of the RRx-001 parent molecule to GSH and hemoglobin conjugates, RRx-001-GSH, being the predominant measurable metabolite in the plasma, was chosen as a surrogate for drug exposure. Terminal half-life of RRx-001-GSH was calculated as approximately 30 minutes.

For the molecule `NC(CCC(=O)NC(CSCC(=O)N1CC([N+](=O)[O-])([N+](=O)[O-])C1)C(=O)NCC(=O)O)C(=O)O` (centres unmarked) [RRx-001-GSH], the “area under the plasma concentration-time curve and maximum plasma concentration, dose proportionality” value (doses up to 55 mg/m^2 in phase 1) is reported as “mostly dosed proportional”. Besides, under “plasma”, the “Terminal half-life of RRx-001-GSH” value is “approximately 30 minutes”.
